Holding throughout (assay type): in vivo, human
Assay [1] deals with IgG. Nature of the assay: Example 6 ADBH, 25(OH)D and combination, IgG (immunoturbidimetric). An excerpt: (§1) The object was to study the effect of active metabolites of vitamin D, as exemplified by 25 (OH)D, on the immune status in participants, judging by the level of immunoglobulines IgG, IgA, and IgM. 32 participants in the age range between 38 and 62 (23 females and 9 males) residing in Penza had no acute diseases and were apparently healthy. The immune status was examined before the therapy started and 30 days after that. […] Immunoglobulines were detected by an immunoturbidimetric method, using an assay kit of DiaSys Diagnostic Systems (Germany).
(§2) Table 3 presents mean values (M±m) of specific antibody response for main immunoglobulin classes IgG, IgA, and IgM.

In assay [2] the test system is IgM. Nature of the assay: Example 6 ADBH, 25(OH)D and combination, IgM (immunoturbidimetric).
Text: as §1, §2

In another assay the test system is IgA. Nature of the assay: Example 5 comparative effect of ingredients and additive, serum IgA. An excerpt:
(§3) The object of the study lied in analyzing comparative effect of main ingredients of the additive (the ADBH and vitamin D, separately) on the immune system of the body by variations of the main classes of immunoglobulins IgG, IgA, and IgM in blood serum. As stated previously, IgG is the main serum immunoglobuline of a healthy human amounting to 70-75% of the whole immunoglobulin fraction. It is especially active in the immune response. The serous IgA makes up to 15-20% of the whole immunoglobulin fraction. […] The IgM immunoglobulins are capable of neutralizing foreign particles, effectively activating complement, triggering defensive response mechanisms in the body.
(§4) 29 participants, 37 to 60 years old, residing in the city of Penza and suffering from frequent catarrhal diseases were examined, and low levels of immunoglobulin reference values were uncovered. In view of the task set, immunopotentiation was administered to them. Depending on the method of immune correction, the participants were divided into three groups:1st group—nine persons took a tablet of the ADBH (150 mg) twice a day for 30 days, 2nd group—8 persons took a tablet of vitamin D3 (500 IE) twice a day for 30 days, and 3rd group—12 persons took a tablet of the proposed additive (150 mg of the ADBH and 500 IE of vitamin D3) by one tablet twice a day for 30 days.

Assay [3] deals with IgM. In words: Example 5 comparative effect of ingredients and additive, serum IgM.
Text: as §3, §4

For another assay, the system named is ARD. Nature of the assay: Example 5 catamnesis, ARD during six months after the study. The note with it: during six months after the study was over. As for the experimental part:
as §4
In other words, an unexpected result of the combined use of the ingredients dramatically differs from that where the ingredients are employed individually. […] The result can probably be explained by the presence of an enhancer of one ingredient of the proposed additive in the other which is on full display only when the both ingredients are used jointly.

Assay [4] concerns IgG. Nature of the assay: Example 5 comparative effect of ingredients and additive, serum IgG.
Text: as §3, §4

Setting [5] is: After one-month treatment, twice a day (ADBH 150 mg, 25(OH)D 50 IE; or both in one tablet).
Where [6] appears, read: Before, apparently healthy participants 38 to 62 years.
The mark [7] stands for this setting: After, one tablet twice a day for 30 days (ADBH 150 mg; vitamin D3 500 IE; additive 150 mg ADBH + 500 IE D3).
Where [8] appears, read: Before, participants 37 to 60 years with frequent catarrhal diseases.

Take `C=C1CC[C@H](O)C/C1=C/C=C1\CCC[C@]2(C)[C@@H]([C@H](C)CCCC(C)(C)O)CC[C@@H]12` [25 (OH)D]: the “IgG, M ± m” value in the assay on IgG [1] (setting [5]) was found to be 12.39; in the assay with IgG [1] (setting [6]), 12.21. Moreover, the figures for the “IgM, M ± m” value with IgM [2] (setting [5]) and in the assay with IgM [2] (setting [6]) were 1.82 and 1.91, respectively.
With `C=C1CC[C@H](O)C/C1=C/C=C1\CCC[C@]2(C)[C@@H]([C@H](C)CCCC(C)C)CC[C@@H]12` [vitamin D3], the results for the “IgA, M ± m” value in the assay with IgA (setting [7]) and in the assay with IgA (setting [8]) were 1.93 and 1.81, respectively. The “IgM, M ± m” value with IgM [3] (setting [7]) is reported as 1.82; with IgM [3] (setting [8]), 1.91. In the assay with ARD, the “falling ill with ARD in catamnesis” value is listed as “had those diseased”. The “IgG, M ± m” value with IgG [4] (setting [7]) is given as 12.27; in the assay with IgG [4] (setting [8]), 12.41.
